From PubChem BioAssay AID330 (DTP/NCI, 2004)
Several values for one entry are separate records, joined by “and”; a condition that tells them apart may be missing. Identical values can stand only once. Toxic doses and inconclusive results are not listed. How the source made its calls: active means survival T/C of 150% or more; inactive means T/C below 125% in these data.

Test system: P388 leukemia ip, CD2F1 mice, survival T/C
Assay: NCI In Vivo Anticancer Drug Screen. Data for tumor model P388 Leukemia (intraperitoneal) in CD2F1 (CDF1) mice
Conditions: endpoint: median survival time, higher = longer survival
In short: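 Mice carrying the transplanted tumor received test compound or vehicle. Survival was recorded in each group, and the value is the treated-group measurement divided by that of the vehicle-treated control group.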

[1] = dose: 6.25 mg/kg/injection, schedule: Q01DX009 (ip), vehicle: saline
[2] = dose: 100.0 mg/kg/injection, schedule: Q04DX003 (ip), vehicle: saline with Tween-80
[3] = dose: 50.0 mg/kg/injection, schedule: Q01DX005 (ip), vehicle: saline with Tween-80
[4] = dose: 100.0 mg/kg/injection, schedule: Q01DX005 (ip), vehicle: saline with Tween-80
[5] = dose: 200.0 mg/kg/injection, schedule: Q01DX005 (ip), vehicle: saline with Tween-80
[6] = dose: 50.0 mg/kg/injection, schedule: Q01DX009 (ip), vehicle: Klucel (hydroxypropylcellulose) (HPC)
[7] = dose: 100.0 mg/kg/injection, schedule: Q01DX009 (ip), vehicle: Klucel (hydroxypropylcellulose) (HPC)
[8] = dose: 200.0 mg/kg/injection, schedule: Q01DX009 (ip), vehicle: Klucel (hydroxypropylcellulose) (HPC)
[9] = dose: 60.0 mg/kg/injection, schedule: Q01DX005 (ip), vehicle: saline with Tween-80
[10] = dose: 120.0 mg/kg/injection, schedule: Q01DX005 (ip), vehicle: saline with Tween-80
[11] = dose: 240.0 mg/kg/injection, schedule: Q01DX005 (ip), vehicle: saline with Tween-80
[12] = dose: 50.0 mg/kg/injection, schedule: Q01DX009 (ip), vehicle: saline
[13] = dose: 200.0 mg/kg/injection, schedule: Q04DX003 (ip), vehicle: saline with Tween-80
[14] = dose: 400.0 mg/kg/injection, schedule: Q04DX003 (ip), vehicle: saline with Tween-80

Measured: T/C

O=C(OCCn1c(=O)n(CCOC(=O)c2cccc([N+](=O)[O-])c2)c(=O)n(CCOC(=O)c2cccc([N+](=O)[O-])c2)c1=O)c1cccc([N+](=O)[O-])c1
inactive: dose: 100.0 mg/kg/injection, schedule: Q04DX003 (ip), vehicle: Klucel (hydroxypropylcellulose) (HPC) 93 % of control | dose: 200.0 mg/kg/injection, schedule: Q04DX003 (ip), vehicle: Klucel (hydroxypropylcellulose) (HPC) 86 % of control | dose: 400.0 mg/kg/injection, schedule: Q04DX003 (ip), vehicle: Klucel (hydroxypropylcellulose) (HPC) 87 % of control

CC(C)CC(=O)CC(=O)C(C)(C)C.CC(C)CC(=O)CC(=O)C(C)(C)C.CC(C)CC(=O)CC(=O)C(C)(C)C.CC(C)CC(=O)CC(=O)C(C)(C)C.[Ce]
inactive: dose: 50.0 mg/kg/injection, schedule: Q01DX009 (ip), vehicle: distilled water + alcohol 106 % of control | dose: 100.0 mg/kg/injection, schedule: Q01DX009 (ip), vehicle: distilled water + alcohol 103 % of control | dose: 200.0 mg/kg/injection, schedule: Q01DX009 (ip), vehicle: distilled water + alcohol 106 % of control

CN1CC(C2(O)CCN(C)C2=O)C(O)C1=O (stereo not drawn)
inactive: dose: 100.0 mg/kg/injection, schedule: Q01DX001 (ip), vehicle: saline 104 % of control | dose: 200.0 mg/kg/injection, schedule: Q01DX001 (ip), vehicle: saline 97 % of control

O=C1CC2(C(=O)N1CN1CCOCC1)c1ccccc1-c1ccccc12
inactive: dose: 50.0 mg/kg/injection, schedule: Q04DX002 (ip), vehicle: Klucel (hydroxypropylcellulose) (HPC) 109 % of control | dose: 100.0 mg/kg/injection, schedule: Q04DX002 (ip), vehicle: Klucel (hydroxypropylcellulose) (HPC) 99 % of control and 108 % of control | dose: 200.0 mg/kg/injection, schedule: Q04DX002 (ip), vehicle: Klucel (hydroxypropylcellulose) (HPC) 111 % of control

C/C(=C/c1cc(Br)c(O)c(Br)c1)[N+](=O)[O-]
inactive: [1] 100 % of control | dose: 12.5 mg/kg/injection, schedule: Q01DX009 (ip), vehicle: saline 110 % of control and 90 % of control | dose: 12.5 mg/kg/injection, schedule: Q04DX003 (ip), vehicle: saline 106 % of control | dose: 25.0 mg/kg/injection, schedule: Q01DX009 (ip), vehicle: saline 109 % of control and 90 % of control | dose: 25.0 mg/kg/injection, schedule: Q04DX003 (ip), vehicle: saline 100 % of control | dose: 50.0 mg/kg/injection, schedule: Q04DX003 (ip), vehicle: saline 100 % of control | dose: 100.0 mg/kg/injection, schedule: Q01DX009 (ip), vehicle: saline 90 % of control | [2] 98 % of control

O=C(O)C1CCC(CNCC2C(=O)OC3CCC4C(O)CC(O)C4CC32)CC1 (stereo not drawn)
inactive: dose: 100.0 mg/kg/injection, schedule: Q04DX002 (ip), vehicle: saline 97 % of control | dose: 200.0 mg/kg/injection, schedule: Q04DX002 (ip), vehicle: saline 100 % of control | dose: 400.0 mg/kg/injection, schedule: Q04DX002 (ip), vehicle: saline 105 % of control

Nc1c(C(=O)NCCc2ccccc2)c2nc3c(C(=O)NCCc4ccccc4)ccc(Br)c3oc-2c(Br)c1=O
inactive: [3] 89 % of control | [4] 94 % of control | [5] 99 % of control

O=C(Nc1ncnc2nc[nH]c12)c1ccccc1
inactive: [6] 107 % of control | [7] 97 % of control | [8] 101 % of control | dose: 400.0 mg/kg/injection, schedule: Q01DX009 (ip), vehicle: Klucel (hydroxypropylcellulose) (HPC) 112 % of control

Cc1nc2c(Br)cc(Br)cc2c(=O)n1CC(=O)NNC(N)=S
inactive: [6] 95 % of control | [7] 104 % of control | [8] 101 % of control

O=C1c2cc3c(cc2C(=O)c2cc(-c4ccccc4)c(-c4ccccc4)cc21)OCO3
inactive: [9] 92 % of control | [10] 100 % of control | [11] 98 % of control and 102 % of control

CC(C)CCCCCc1ccc(OCCOc2ccc(C(=O)Nc3ccc(S(=O)(=O)F)cc3N)cc2)cc1
inactive: dose: 50.0 mg/kg/injection, schedule: Q04DX003 (ip), vehicle: saline sonified 100 % of control | dose: 100.0 mg/kg/injection, schedule: Q04DX003 (ip), vehicle: saline sonified 100 % of control | dose: 200.0 mg/kg/injection, schedule: Q04DX003 (ip), vehicle: saline sonified 90 % of control

CCN(CC)Cc1cc(C(=O)CC(c2ccccc2)S(=O)(=O)c2ccc(C)cc2)ccc1O (stereo not drawn)
inactive: dose: 1.56 mg/kg/injection, schedule: Q01DX009 (ip), vehicle: saline 100 % of control | dose: 3.12 mg/kg/injection, schedule: Q01DX009 (ip), vehicle: saline 94 % of control | [1] 97 % of control | [12] 90 % of control

c1c[nH]cn1
inactive: [12] 97 % of control

S=C(Nc1ccccc1)P(c1ccccc1)c1ccccc1
inactive: dose: 50.0 mg/kg/injection, schedule: Q01DX005 (ip), vehicle: Klucel (hydroxypropylcellulose) (HPC) 111 % of control and 99 % of control | dose: 100.0 mg/kg/injection, schedule: Q01DX005 (ip), vehicle: Klucel (hydroxypropylcellulose) (HPC) 116 % of control and 89 % of control | dose: 200.0 mg/kg/injection, schedule: Q01DX005 (ip), vehicle: Klucel (hydroxypropylcellulose) (HPC) 111 % of control and 89 % of control

CCC(CCC(C)C1CCC2C3CC=C4CC(OC(=O)CCC(=O)O)CCC4(C)C3CCC12C)C(C)C (stereo not drawn)
inactive: [2] 95 % of control | [13] 87 % of control | [14] 87 % of control

CCOC(=O)C1=NN(c2ccccc2)C(C(N)=O)C1 (stereo not drawn)
inactive: [9] 100 % of control | [10] 101 % of control | [11] 101 % of control

CCCCCCCCCCCCC1C(=O)NCCNCCCNCCNC1=O
inactive: dose: 12.5 mg/kg/injection, schedule: Q01DX005 (ip), vehicle: saline 101 % of control | dose: 25.0 mg/kg/injection, schedule: Q01DX005 (ip), vehicle: saline 97 % of control | dose: 50.0 mg/kg/injection, schedule: Q01DX005 (ip), vehicle: saline 105 % of control

C=C1C(=O)OC2/C=C(\C)CC/C=C(/C(=O)OC)C(OC(C)=O)C(OC(=O)C(C)(O)C(C)O)C12 (stereo not drawn)
inactive: dose: 3.0 mg/kg/injection, schedule: Q01DX009 (ip), vehicle: Klucel (hydroxypropylcellulose) (HPC) 116 % of control | dose: 12.0 mg/kg/injection, schedule: Q01DX009 (ip), vehicle: Klucel (hydroxypropylcellulose) (HPC) 122 % of control | dose: 24.0 mg/kg/injection, schedule: Q01DX009 (ip), vehicle: Klucel (hydroxypropylcellulose) (HPC) 120 % of control

O=C(Nc1nc2cc(Cl)ccc2o1)c1ccc(C(=O)Nc2nc3cc(Cl)ccc3o2)cc1
inactive: [2] 108 % of control | [13] 94 % of control | [14] 99 % of control

COc1ccc(N2CCCSC2=S)cc1
inactive: dose: 50.0 mg/kg/injection, schedule: Q01DX005 (ip), vehicle: saline + Tween-80 + alcohol 101 % of control | dose: 100.0 mg/kg/injection, schedule: Q01DX005 (ip), vehicle: saline + Tween-80 + alcohol 101 % of control | dose: 200.0 mg/kg/injection, schedule: Q01DX005 (ip), vehicle: saline + Tween-80 + alcohol 100 % of control

CC(=O)OB(OC(C)=O)O[B-]12Oc3ccccc3C=[N+]1c1ccccc1S2 (stereo not drawn)
inactive: dose: 100.0 mg/kg/injection, schedule: Q04DX002 (ip), vehicle: saline with Tween-80 106 % of control | dose: 200.0 mg/kg/injection, schedule: Q04DX002 (ip), vehicle: saline with Tween-80 97 % of control | dose: 400.0 mg/kg/injection, schedule: Q04DX002 (ip), vehicle: saline with Tween-80 92 % of control

CC(=O)Nc1ccc(-c2cn3ccccc3n2)cc1
inactive: dose: 50.0 mg/kg/injection, schedule: Q01DX009 (ip), vehicle: saline with Tween-80 100 % of control | dose: 100.0 mg/kg/injection, schedule: Q01DX009 (ip), vehicle: saline with Tween-80 92 % of control | dose: 200.0 mg/kg/injection, schedule: Q01DX009 (ip), vehicle: saline with Tween-80 106 % of control

CC(=O)/C(N=Nc1ccc(F)cc1F)=C(\C)O
inactive: [3] 103 % of control | [4] 103 % of control | [5] 107 % of control
